76 molecules from PubChem BioAssay AID1159605 (The Scripps Research Institute Molecular Screening Center, 2016) can be followed below.

Active and inactive are the calls of the source.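 Rule for the calls: active = IC50 of 10 µM or lower; inactive = IC50 above 10 µM.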

Mitogen-activated protein kinase kinase kinase 5 (Homo sapiens), sequence (Q99683 whole entry, looked up): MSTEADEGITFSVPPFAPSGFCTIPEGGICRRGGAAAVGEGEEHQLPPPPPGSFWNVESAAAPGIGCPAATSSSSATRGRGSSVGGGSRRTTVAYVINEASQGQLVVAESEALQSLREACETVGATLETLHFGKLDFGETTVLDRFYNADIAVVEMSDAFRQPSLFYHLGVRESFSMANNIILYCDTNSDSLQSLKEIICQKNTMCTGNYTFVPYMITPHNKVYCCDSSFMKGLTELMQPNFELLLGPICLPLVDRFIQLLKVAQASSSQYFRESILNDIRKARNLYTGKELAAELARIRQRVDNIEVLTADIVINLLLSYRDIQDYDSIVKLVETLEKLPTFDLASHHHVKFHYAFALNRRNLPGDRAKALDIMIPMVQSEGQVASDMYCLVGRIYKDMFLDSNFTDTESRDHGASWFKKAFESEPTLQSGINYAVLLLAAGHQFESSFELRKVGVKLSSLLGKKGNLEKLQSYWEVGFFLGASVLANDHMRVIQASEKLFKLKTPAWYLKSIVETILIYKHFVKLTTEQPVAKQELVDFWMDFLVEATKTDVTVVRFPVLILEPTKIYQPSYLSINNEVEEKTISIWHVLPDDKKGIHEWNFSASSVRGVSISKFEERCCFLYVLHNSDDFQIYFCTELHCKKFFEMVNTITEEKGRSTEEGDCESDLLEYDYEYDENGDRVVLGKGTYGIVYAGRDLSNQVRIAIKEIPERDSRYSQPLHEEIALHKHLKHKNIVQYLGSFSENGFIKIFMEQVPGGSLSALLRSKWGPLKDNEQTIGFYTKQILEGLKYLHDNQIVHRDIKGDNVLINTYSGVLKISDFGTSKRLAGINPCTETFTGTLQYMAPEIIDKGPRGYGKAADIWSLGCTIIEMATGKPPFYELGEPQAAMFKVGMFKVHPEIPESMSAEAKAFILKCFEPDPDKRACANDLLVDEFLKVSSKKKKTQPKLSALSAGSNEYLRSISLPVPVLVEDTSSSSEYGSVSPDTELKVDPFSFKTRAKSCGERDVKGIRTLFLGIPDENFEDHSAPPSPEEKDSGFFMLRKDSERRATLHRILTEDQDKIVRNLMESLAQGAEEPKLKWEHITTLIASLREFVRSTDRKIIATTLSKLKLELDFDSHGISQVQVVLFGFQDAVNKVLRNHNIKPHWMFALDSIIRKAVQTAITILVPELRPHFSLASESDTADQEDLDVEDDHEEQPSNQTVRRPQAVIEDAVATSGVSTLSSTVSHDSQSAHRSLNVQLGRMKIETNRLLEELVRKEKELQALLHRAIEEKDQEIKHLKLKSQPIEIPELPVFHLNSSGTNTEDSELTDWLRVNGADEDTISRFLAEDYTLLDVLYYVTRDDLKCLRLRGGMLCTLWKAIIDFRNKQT

The test addresses Mitogen-activated protein kinase kinase kinase 5 (Homo sapiens) (UniProt Q99683). The test can be described thus: MAP3K5 inhibition concentration-response curves – biochemical, AlphaScreen, MKK6 phosphorylation, dose response (AID 1159605).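 Note: ASK1 phosphorylation of MKK6 substrate detected with anti-phospho-MKK6 antibody beads; inhibitors lower the luminescent signal by blocking MKK6 phosphorylation.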 To be noted: ASK1 MKK6 phosphorylation, AlphaScreen luminescence. On the technique in general: Alpha assays give light when donor and acceptor beads are brought close together.
The term IC50 denotes the point on the concentration scale where inhibition reaches its midpoint. As to `COc1cc2nc(Nc3ccc(N4CCOCC4)cc3)nc(NCc3cccc(C(F)(F)F)c3)c2cc1OC`, the IC50 is > 20.1 µM (inactive).
The entry for `CC(C)n1cnc2c(Nc3ccc(Oc4ccccc4)cc3)nc(N3CCOCC3)nc21` is “inactive”; for `Nc1cc(C2=C3C=CN=C3C(=O)NCC2)c(O)[nH]1` it is > 19.2 µM (inactive); for `FC(F)(F)c1ccc(Cn2cnc3c(Nc4ccc5c(c4)OCO5)nc(Nc4ccc(N5CCOCC5)cc4)nc32)cc1` it is 5.36 µM.
As to `CC(C)n1cnc2c(NC3CC3)nc(N3CCN(c4ccccn4)CC3)nc21`, the IC50 entry was “inactive”.
As to `COc1cc2nc(Nc3ccc4ncccc4c3)nc(Nc3ccc(NC(C)=O)cc3)c2cc1OC`, the IC50 was > 20 µM (inactive).
The entry for `c1cc(Nc2ccc3c(c2)OCO3)nc(Nc2ccc(N3CCOCC3)cc2)n1` is “inactive”; for `COc1ccc(CCNc2nc(NC3CCN(Cc4ccccc4)CC3)nc3c2ncn3C2CCCCC2)cc1` it is “inactive”.
In the case of `Cc1cc(Nc2ccc(N3CCOCC3)cc2)nc(Nc2cccc(N(C)C)c2)n1`, the IC50 was > 19.9 µM (inactive).
Regarding `COc1cc(Nc2nc(Nc3ccc(N4CCOCC4)cc3)c3ncn(Cc4ccc(C(F)(F)F)cc4)c3n2)cc(OC)c1OC`, the IC50 entry is “inactive”.
`FC(F)(F)c1cccc(CNc2ccnc(Nc3ccc(N4CCOCC4)cc3)n2)c1`: the IC50 result is “inactive”.
`COc1cc2nc(Nc3cc(OC)c(OC)c(OC)c3)nc(Nc3ccc(N4CCOCC4)cc3)c2cc1OC`: the IC50 was > 20.3 µM (inactive).
For `Fc1cnc(Nc2ccc(N3CCNCC3)cc2)cc1-n1cnc(Nc2ccccc2)n1`, the IC50 was > 19.2 µM (inactive).
On to `Cc1ccc(-c2ncn(-c3ccc(Nc4nccc(-c5cncc6ccccc56)n4)cc3)n2)cn1`, for which the IC50 was > 19.2 µM (inactive).
In the case of `COc1ccc(CCNc2nc(N3CCN(Cc4ccc5c(c4)OCO5)CC3)nc3c2ncn3C2CCCCC2)cc1`, the IC50 was > 22.5 µM (inactive).
With `Nc1nc(Nc2ccc(N3CCOCC3)cc2)cc(Nc2ccc3c(c2)OCO3)n1`, the IC50 was > 16.8 µM (inactive).
As for `Cc1nc(C)n(-c2ccc(Nc3nccc(-c4cc(F)cc(-c5cn[nH]c5C)c4)n3)cc2)n1`, the IC50 is > 19.2 µM (inactive).
As to `COc1cc2nc(Nc3cccc(N(C)C)c3)nc(Nc3ccc(N4CCOCC4)cc3)c2cc1OC`, the IC50 was > 19.9 µM (inactive).
Turning to `CN(C)c1cccc(Nc2nc(NCCc3ccc(O)cc3)c3ncn(-c4ccccc4)c3n2)c1`, the IC50 is > 20 µM (inactive).
The figure for `FC(F)(F)c1ccc(Cn2cnc3c(NCc4cccc(C(F)(F)F)c4)nc(Nc4ccc5ncccc5c4)nc32)cc1` is > 19.8 µM (inactive).
With `CC(C)CNC(=O)c1ccc2c(c1)CC(c1nc3ncc(-c4ccnc(N)n4)cc3[nH]1)CO2` (stereo unspecified), the IC50 is > 19.2 µM (inactive).
Turning to `COc1ccc(CCNc2nc(Nc3ccc(N4CCOCC4)cc3)ncc2C)cc1`, the IC50 entry was “inactive”.
Take `Cc1cc(Nc2ccc(N3CCOCC3)cc2)nc(Nc2ccccc2)n1`: the IC50 result was “inactive”.
The figure for `Nc1nc(Nc2ccc(N3CCOCC3)cc2)cc(-c2ccc3[nH]ccc3c2)n1` is 8.21 µM.
The figure for `Nc1nc(Nc2ccc(N3CCOCC3)cc2)cc(NC2CCN(Cc3ccccc3)CC2)n1` is > 23.1 µM (inactive).
The figure for `COc1cc2nc(Nc3nc4ccccc4n3C)nc(Nc3ccc(N4CCOCC4)cc3)c2cc1OC` is 8.95 µM; for `CC(C)n1cnc2c(NC3CCN(Cc4ccccc4)CC3)nc(Nc3cccc(N(C)C)c3)nc21` it is > 21.5 µM (inactive).
As to `c1cc(-n2cnc3c(Nc4ccc(N5CCOCC5)cc4)nc(NCc4ccc5c(c4)OCO5)nc32)cs1`, the IC50 is > 19.9 µM (inactive).
`CN(C)c1cccc(Nc2ccc(-n3cc(CC(=O)Nc4ccc5c(c4)OCO5)c4ccccc43)nn2)c1`: the IC50 is > 19 µM (inactive).
The same measure for `Cc1cccc(Nc2ccc3c(cnn3-c3cccc(C(=O)NCCN4CCNCC4)c3)c2)c1Cl`: > 19.2 µM (inactive).
The same measure for `CC(C)n1cnc2c(Nc3ccccc3)nc(Nc3ccc(N4CCOCC4)cc3)nc21`: “inactive”; for `COc1ccc(CCNC(=O)c2ccnc(Nc3cccc(N(C)C)c3)c2)cc1`: > 20 µM (inactive).
The entry for `CN(C)c1cccc(Nc2nc(Nc3ccc4c(c3)OCO4)c3ncn(Cc4ccc(C(F)(F)F)cc4)c3n2)c1` is “inactive”; for `CCN(CC)c1nc(Nc2ccc3c(c2)OCO3)nc(N2CCC(N3CCOCC3)CC2)n1` it is “inactive”.
In the case of `Cn1ccc2cc(-c3cc(Nc4ccc(N5CCOCC5)cc4)nc(N)n3)ccc21`, the IC50 was > 20 µM (inactive).
For the molecule `COc1cc2nc(Nc3cccc(N(C)C)c3)nc(NC3CC3)c2cc1OC`, the IC50 entry was “inactive”.
For `Cc1nc(C)n(-c2ccc(Nc3nccc(-c4cccc(-n5nccn5)c4)n3)cc2)n1`, the IC50 was > 19.2 µM (inactive).
Regarding `c1ccc(N2CCN(c3nc(Nc4ccc(N5CCOCC5)cc4)c4ncn(-c5ccsc5)c4n3)CC2)nc1`, the IC50 entry is “inactive”.
The same measure for `FC(F)(F)c1ccc(Cn2cnc3c(Nc4ccc(N5CCOCC5)cc4)nc(N4CCN(c5ccccn5)CC4)nc32)cc1`: > 20 µM (inactive); for `c1ccc(N2CCN(c3nc(Nc4ccc(N5CCOCC5)cc4)c4ncn(C5CCCCC5)c4n3)CC2)nc1`: > 22.8 µM (inactive); for `Cc1cc(NC2CCN(Cc3ccccc3)CC2)nc(Nc2cccc(N(C)C)c2)n1`: > 21.2 µM (inactive).
With `c1ccc(CN2CCC(Nc3nc(Nc4ccc(N5CCOCC5)cc4)nc4c3ncn4-c3ccsc3)CC2)cc1`, the IC50 is 9.41 µM.
On to `Cc1cc(Nc2ccc3c(c2)OCO3)nc(Nc2cccc(N(C)C)c2)n1`, for which the IC50 was 5.32 µM.
For `c1ccc(OCCNc2nc(N3CCN(Cc4ccc5c(c4)OCO5)CC3)nc3c2ncn3C2CCCCC2)cc1`, the IC50 result was “inactive”.
For the molecule `Cc1ncn(-c2ccc(Nc3nccc(-c4cc(F)cc(-c5cn[nH]c5C)c4)n3)cc2)n1`, the IC50 was > 19.2 µM (inactive).
Turning to `NC(=O)c1ccc(-c2nc(NCc3cccc(C(F)(F)F)c3)c3ncn(Cc4ccc(C(F)(F)F)cc4)c3n2)cc1`, the IC50 was > 17.3 µM (inactive).
As to `COc1cc(Nc2nc(-c3c(C)noc3C)nc3c2ncn3Cc2ccc(C(F)(F)F)cc2)cc(OC)c1OC`, the IC50 is > 27.5 µM (inactive).
Consider `CC(C)n1cnc2c(Nc3ccc(N4CCOCC4)cc3)nc(N3CCN(c4ccccn4)CC3)nc21`, for which the IC50 entry was “inactive”.
For the molecule `NC(=O)c1cc2ccccc2cc1Nc1ccnc(Nc2ccc(N3CCOCC3)cc2)c1`, the IC50 was > 19.2 µM (inactive).
`Cc1cc(Nc2ccc(N3CCOCC3)cc2)nc(N2CCc3ccccc3C2)n1`: the IC50 entry is “inactive”.
With `c1cn(-c2ccc(Nc3nc4ncnc(Nc5ccc6c(c5)OCO6)c4[nH]3)cc2)cn1`, the IC50 is > 21.9 µM (inactive).
On to `NC(=O)c1ccc(-c2nc(NCc3cccc(C(F)(F)F)c3)c3ncn(-c4ccccc4)c3n2)cc1`, for which the IC50 was > 18 µM (inactive).
The figure for `CC(C)n1cnc2c(NCc3cccc(C(F)(F)F)c3)nc(N3CCN(Cc4ccc5c(c4)OCO5)CC3)nc21` is 8.82 µM.
The same measure for `COc1ccc2c(c1)CC(C(=O)Nc1ccc(-c3cn[nH]c3)cc1OCCN(Cc1ccccc1)Cc1ccccc1)CO2` (stereo unspecified): > 19.2 µM (inactive); for `Cc1nc(C)n(-c2ccc(Nc3nccc(-c4cccc(-n5cncn5)c4)n3)cc2)n1`: > 19.2 µM (inactive).
The entry for `c1ccc(-n2cnc3c(NCc4cccnc4)nc(Nc4ccc(N5CCOCC5)cc4)nc32)cc1` is “inactive”; for `CN(C)c1cccc(Nc2nc(Nc3ccc(N4CCOCC4)cc3)c3[nH]cnc3n2)c1` it is “inactive”.
`c1cc(-n2cnc3c(NC4CC4)nc(Nc4ccc(N5CCOCC5)cc4)nc32)cs1`: the IC50 entry was “inactive”.
Regarding `c1cc(-n2cnc(N3CCOCC3)n2)ccc1Nc1ncc2ccc(-c3cn[nH]n3)cc2n1`, the IC50 was > 19.2 µM (inactive).
With `FC(F)(F)c1ccc(Cn2cnc3c(NC4CCN(Cc5ccccc5)CC4)nc(Nc4ccc(N5CCOCC5)cc4)nc32)cc1`, the IC50 entry was “inactive”.
The same measure for `O=c1[nH]cccc1-c1ccc(Nc2nccc(-c3ccc4nc(C5CC5)[nH]c(=O)c4c3)n2)cc1`: > 19.2 µM (inactive); for `CC(C)n1c(Nc2cccc(N(C)C)c2)nc2c(NC3CCN(Cc4ccccc4)CC3)ncnc21`: > 18.8 µM (inactive); for `c1cc(-n2cnc3c(Nc4ccc5c(c4)OCO5)nc(N4CCN(Cc5ccc6c(c5)OCO6)CC4)nc32)cs1`: > 19.9 µM (inactive).
For the molecule `CCN(CC)c1nc(Nc2ccc(N3CCOCC3)cc2)nc(Nc2ccc(-n3ccnc3)cc2)n1`, the half-inhibitory concentration (IC50) was 8.79 µM.
The figure for `CN(C)c1cccc(Nc2ccc(-n3cc(CC(=O)Nc4ccc(N5CCOCC5)cc4)c4ccccc43)nn2)c1` is > 20.1 µM (inactive).
With `c1ccc(Oc2ccc(Nc3nc(N4CCc5ccccc5C4)nc4c3ncn4-c3ccccc3)cc2)cc1`, the IC50 was > 20 µM (inactive).
Regarding `OC1CCN(c2ccc(Nc3nccc(-c4cc(F)cc(N5CCN(C6CC6)CC5)c4)n3)cc2)CC1`, the IC50 is > 19.2 µM (inactive).
For the molecule `Cc1nc(C)n(-c2ccc(Nc3nccc(-c4cc(F)cc(-c5ncco5)c4)n3)cc2)n1`, the IC50 is > 19.2 µM (inactive).
In the case of `Cc1cc(NCc2cccc(C(F)(F)F)c2)nc(Nc2ccc(N3CCOCC3)cc2)n1`, the IC50 was 6.57 µM.
`CN(C)c1cccc(Nc2nccc(NCc3cccc(C(F)(F)F)c3)n2)c1`: the IC50 was > 16.5 µM (inactive).
As to `COc1ccc(CCNc2ccnc(Nc3cccc(N(C)C)c3)n2)cc1`, the IC50 was 7.76 µM.
The figure for `COc1cc2nc(Nc3nc4ccccc4n3C)nc(Nc3ccc(NC(C)=O)cc3)c2cc1OC` is 4.33 µM; for `CC(C)NC(=O)c1cccc(NC(=O)Nc2ccc(-c3ccnc4[nH]ccc34)cc2)c1` it is > 19.2 µM (inactive); for `CN(C)c1cccc(Nc2cc(Nc3ccccc3)ncn2)c1` it is > 22.2 µM (inactive).
`CCN(CC)C(=O)C1CCCN(c2nc(Nc3ccc(N4CCOCC4)cc3)c3ncn(Cc4ccc(C(F)(F)F)cc4)c3n2)C1` (stereo unspecified): the IC50 entry is “inactive”.
Consider `FC(F)(F)c1ccc(Cn2cnc3c(Nc4ccc5c(c4)OCO5)nc(Nc4ccccc4)nc32)cc1`, for which the IC50 was > 22 µM (inactive).
